{
  "source": "patent US20150329918A1",
  "about": "“JAGGED1 AS A MARKER AND THERAPEUTIC TARGET FOR BREAST CANCER BONE METASTASIS” (The Trustees of Princeton University, priority 2011, published 2015)",
  "key": {"[1]": {"tested_on": "Notch target genes (Hes1, Hey1, HeyL and TGFβ1)", "test": "qRT-PCR of Notch target genes in MC3T3-E1 osteoblasts FACS-separated from cocultures", "format": "cell-based, mouse", "settings": "osteoblasts FACS-separated from JAG1 OE coculture; FIG. 7B", "protocol": "For gene expression analysis, MC3T3-E1 cells were grown to confluence in 10 cm culture dishes. The 2×10^5 GFP+ control or JAG1 OE cells were seeded onto the plate in osteoblast media. Cell sorting was performed to purify the GFP-negative MC3T3-E1 osteoblasts 5 days after initial coculture. RNA from FACS-separated MC3T3-E1 cells was collected in RLT lysis buffer, extracted with RNeasy Mini Kit (QIAGEN), and subjected to quantitative RT-PCR.\n(§1) RNA from in vitro cultured cells or flow cytometry-separated cells was collected in RLT lysis buffer and extracted with RNeasy mini kit (Qiagen). RNA extraction from in vivo tissue samples was performed using Trizol (Invitrogen) according to the manufacturer's protocol. cDNA synthesis of RNA was performed using Superscript III First-Strand (Invitrogen). Quantitative RT-PCR was performed using Power Syber Green PCR Master Mix (Applied Biosystems) with the ABI Prism 7900HT thermocycler (Applied Biosystems) according to the manufacturer's protocol. A standard curve for each gene was generated by serial dilutions of a standard. Values were then normalized by the amount of GAPDH or β-actin in each sample. For in vivo samples, species-specific primers were employed for gene expression analysis in the tumor compartment (human) versus stroma compartment (mouse)."}, "IL-6": {"tested_on": "IL-6", "test": "Murine IL-6 ELISA and qRT-PCR in osteoblast cocultures", "format": "cell-based, mouse", "settings": "JAG1 OE coculture with MC3T3-E1; FIGS. 13B, 13C, 13E", "protocol": "Quantitative levels of murine IL-6 in the conditioned medium of cultured and cocultured cells were determined in triplicate by ELISA according to the manufacturer's protocol (Quantikine immunoassay kit, R&D systems).\nas §1"}, "[2]": {"tested_on": "JAG1 OE tumor cells bone metastasis", "test": "Bone metastasis xenograft, JAG1 OE tumor cells, MRK-003 treatment", "format": "in vivo, mouse", "protocol": "For bone metastsis studies, 10^5 tumor cells were injected into the left cardiac ventricle of anesthetized female athymic Ncr-nu/nu or BALB/c mice. Development of metastases was monitored by BLI. Bioluminescence images were acquired with a Xenogen IVIS 200 Imaging System. Analysis was performed with Living Image software by measuring photon flux in the hindlimbs of mice. Data were normalized to the signal on day 7. Bone metastasis-free survival curves represent the time point at which each mouse developed bone metastasis by threshold BLI signals in the hindlimbs. […]\nOsteolysis was assessed by X-ray radiography. […] Osteolytic lesions were identified on radiographs as demarcated radiolucent lesions in the bone and quantified using the ImageJ software (National Institutes of Health).\nHindlimb bones were excised from mice at the end point of each experiment, immediately after the last BLI time point. […] For quantitative analysis of lesion area, a 5× objective was used to focus on the tumor region of interest and images were acquired using the AxioCamICc3 camera set to an exposure of 100 ms. Lesions that were larger than the field of view were quantified by acquiring multiple images to encompass the entire lesion. The “spline” function of the AxioVision software was used to outline the region of interest and subsequently quantify the lesion area. […]"}},
  "data": [
    {"smiles": "O=S1(=O)N[C@@]2(CN1CC(F)(F)F)[C@@H]1CC[C@H]2Cc2ccc(/C=C/CN3CCC(C(F)(F)F)CC3)cc2C1", "note": "[MRK-003]", "values": [
      {"measurement": "Notch target genes (Hes1, Hey1, HeyL and TGFβ1) mRNA in osteoblasts", "setting": "[1]", "value": "downregulated"},
      {"measurement": "IL-6 transcription and secretion from osteoblasts", "setting": "IL-6", "value": "dependent on the Notch pathway"},
      {"measurement": "osteolysis", "setting": "[2]; JAG1 OE, FIG. 17D", "value": "reduced"},
      {"measurement": "reduction of bone metastasis in the JAG1 OE group", "setting": "[2]; tumor signal decreased to levels of control group, FIGS. 17B-17C", "value": "more than 6 fold"}
    ]}
  ]
}
